These results are taken from patent publication US10456344B2, “Hair composition” (Conopco, Inc., priority 2014, dated 2019).

The subject of experiment [1] is antioxidant response element (ARE). The experiment can be described thus: HaCaT cell with antioxidant response element (ARE) reporter gene (luciferase) assay. As to conditions: n = 3. It is filed as cell-based, human. As for the experimental part:
HaCaT (immortal human keratinocyte) cells (P42) were stored in liquid nitrogen and revived in DMEM containing 10% FBS. The cells were sub-cultured and cryostocks made in 10% DMEM containing 10% DMSO from the first two passages.
To generate a stable cell line, the optimal antibiotic concentration was determined for selecting stable cell colonies. A kill curve was performed using untransfected HaCaT cells to evaluate their hygromycin B sensitivity (as the ARE-luciferase construct to be used for transfection contains the gene for hygromycin B resistance). HaCaT cells were plated in a 24-well tissue culture plate at a cell density of ˜80,000 cells per well. 24 hours later the cells were treated with different concentrations of Hygromycin B (ranging from 100 μg/ml to 800 μg/ml for seven days).
pGL4.37 (luc2P/ARE/Hygro) vector (Promega Cat. No. #E3641) transformed into DH5α competent cells (Invitrogen Cat. No. #18263-012). These were then plated on to an LB-ampicillin plate and kept overnight at 37° C. in an incubator.
The next day, single colonies were picked and inoculated in 5 ml LB Amp medium and kept at 37° C. for 8 hours in a shaker incubator at 250 rpm. The starter culture was then inoculated at 1:100 in 100 ml LB Amp medium. 24 hours later, the culture was harvested and transfection grade plasmid prepared using Sigma's Plasmid Midiprep Kit (Cat. No. #PLD35-1KT).
HaCaT cells were plated in 6-well tissue culture plate at a cell density of 500,000 cells per well. After 24 hours, the cells were transfected with 2 μg of endotoxin-free transfection grade pGL4.37 [luc2P/ARE/Hygro] vector in duplicates using Lipofectamine 2000 Reagent (Invitrogen) as per manufacturer's protocol. After transfection, HaCaT cells were allowed to grow and to express the protein for Hygromycin B resistance under non-selective conditions for 24 hours. One day post transfection cells were treated with Hygromycin B at a concentration of 400 μg/ml to initiate the antibiotic selection pressure. For the selection of stably expressing cells, HaCaT cells were grown in 10% DMEM medium containing 400 μg/ml of Hygromycin B. Under Hygromycin B selective conditions, resistant cells will outgrow non-resistant cells thereby resulting in a polyclonal population of stably-expressing cells. Stably expressing HaCaT cells were fed every 2-3 days with 400 μg/ml Hygromycin B selection medium. After 3 weeks of selection with 400 μg/ml of Hygromycin B medium stable pools were observed on the plate. Individual clones were picked using cloning rings and transferred to 96-well plate and expanded up to T25 cm^2 flask. Out of a dozen individual clones, clone 7 was chosen and validated for expression of luciferase upon treatment with D,L-sulforaphane.
HaCaT_ARE_luc2P_Clone_7 cells were seeded in a 96 well plate at a cell density of ˜7.5×10^3 cells per well. 24 hours later D, L-sulforaphane was added at increasing concentrations (0 μM, 0.2 μM, 0.4 μM, 0.6 μM, 0.8 μM and 1 μM). A standard curve for the luciferase assay was generated for relative light units (RLU) for HaCaT_ARE_Clone_7 cells treated with increasing concentrations of D,L-sulforaphane.
HaCaT_ARE_luc2P_Clone_7 cells were seeded in 96 well plates at a cell density of ˜7,500 cells per well. All test compounds were added to the cells at a final dilution of 1:1000 and the luciferase assay performed.
The following combinations of test compounds were evaluated in the assay: • (a) granilin, an NRF2 agonist, and 22(R)-hydroxycholesterol, a liver X receptor α/β agonist; • (b) granilin and 3-[3-[[[2-chloro-3-(trifluoromethyl)phenyl]methyl](2,2-diphenylethyl) amino]propoxy]benzeneacetic acid hydrochloride (also known as GW 3965 hydrochloride and available from Tocris), a liver X receptor α/β agonist; and • (c) granilin and stigmasterol, a liver X receptor α/β agonist. Results
Background: A reporter such as luciferase makes a cellular process visible.

The test system of experiment [2] is HO-1. The following applies: hair follicles treated with sulforaphane; cited from earlier work.
Experiment [3] concerns NADP(H): quinone oxidoreductase (NQO-1). The experiment can be described thus: NQO-1 gene expression assay of hair follicle cells (real time PCR). It is filed as cell-based, human. The following applies: 24 hour treatment, n = 3. The text has this: Temporal or occipital human scalp skin was obtained from subjects undergoing face-lift or hair transplant surgery with informed consent and ethics approval. Anagen VI hair follicles were isolated and maintained according to the method described in Philpott et al (J. Cell Sci 97, 463-471 (1990)). Dhurat et al (Int J Trichology, 2(2), 96-100 (July-December 2010)) describe that anagen is conventionally divided into six stages, Anagen I-V (proanagen), when the hair shaft grows within the hair follicle, and Anagen VI ([…]), when the tip of the hair shaft emerges from the hair follicle. Hair follicles were stabilised in RNAlater (for PCR). Five individual Anagen VI hair follicles were used for each culture condition/patient. […] RNA was extracted using the Qiagen RNeasy Microkit (maximum 5 mg tissue per extraction). […] cDNA was diluted 1:10 in RNase free water. […] Plates were run on an Applied Biosystems StepOnePlusTM Real Time PCR machine. Fast cycling conditions were used, utilising a 2 minute polymerase activation step at 95° C., followed by 45 cycles of denaturing at 95° C. for 1 second, and annealing/extension at 60° C. for 20 seconds. […] Data was analysed by the ΔΔCt methodology The test compounds were sulforaphane, an NRF2 agonist, and 22(R)-hydroxycholesterol, a liver X receptor α/β agonist, and mixtures thereof.
In general terms: Quantitative PCR measures a nucleic acid by following its amplification.

For experiment [4], the system named is hemeoxygenase-1 (HO-1) protein. In words: HO-1 ELISA of lysates of treated HaCaT cells. It is filed as cell-based, human. The following applies: 24 hours, n = 3. On the procedure: HaCaT (immortal human keratinocyte) cells (P42) were stored in liquid nitrogen and revived in DMEM containing 10% FBS. The cells were sub-cultured and cryostocks made in 10% DMEM containing 10% DMSO from the first two passages. Cells were routinely plated out in 6-well tissue culture dishes, at a seeding density of ˜5000 cells/cm2 in 2 ml complete medium/well for 24 hours, and incubated at 37° C. in 5% CO2. Test solutions were prepared in ethanol or DMSO and added directly to the cells and treated for 24 hours. The cells were then pelleted. All cell pellets were lysed on ice for 30 minutes in 1 ml cell lysis buffer per 2.5×10^6 cells. The lysis buffer contained 1% NP-40, 0.1% sodium deoxycholate, 0.1% SDS, 6 mM sodium chloride and 0.05 M Tris at pH 7.6. […] Sigma P8340) was added prior to use at a level of 10 μl per ml of lysis buffer. The clarified cell lysate was frozen at −80° C. until needed. The total protein concentration of each cell lysate was measured using the Pierce BCA protein assay kit. […] The reagent solution was prepared according to the kit instructions from 50 parts reagent A and 1 part reagent B. 200 μl of the final reagent was added to each well of the microtitre plate. The plate was mixed, covered and incubated at 37° C. for 30 minutes and absorbance read at 562 nm. A protein standard curve was constructed and used to determine the protein concentration of each cell lysate. HO-1 ELISA (R & D Systems) The hemeoxygenase-1 (HO-1) protein concentration of each cell lysate was assayed using the DuoSet Human Total HO-1/HMOX1 assay (R&D Systems DYC3776) according to the manufacturer's instructions. […] The HO-1 capture antibody was diluted to a concentration of 8 μg/ml in PBS and was bound to the microtitre plate (Greiner Bio-One) overnight at room temperature. The unbound antibody was then removed by washing 3 times with wash buffer (0.05% Tween 20 in PBS) on an automatic plate washer. […] The plate was washed as before. 100 μl of 1/200 diluted streptavidin horseradish peroxidase (HRP) was added to each well and incubated in the dark for 20 minutes at room temperature. The plate was washed as before and then 100 μl of substrate solution (R&D Systems DY999, 1:1 mixture of Colour Reagent A and Colour Reagent B) was added to each well and incubated, in the dark at room temperature, until colour developed (approx 20 minutes). 50 μl of stop solution (2M H2SO4) was applied to each well and the plate read on a microplate reader (Dynex MRX) at 450 nm with wavelength correction set at 540 nm. A standard curve was plotted of mean OD versus HO-1 concentration and the line of best fit calculated by regression analysis. The unknown concentration of HO-1 protein in all the samples was calculated from this. The results were normalised using the total protein data and expressed as ng HO-1 per μg protein. The test compounds were sulforaphane, an NRF2 agonist, and 22(R)-hydroxycholesterol, a liver X receptor α/β agonist, and mixtures thereof.
(In general: In an ELISA, binding on a coated surface is turned into a signal by an enzyme label.)

Consider `Cl.O=C(O)Cc1cccc(OCCCN(Cc2cccc(C(F)(F)F)c2Cl)CC(c2ccccc2)c2ccccc2)c1` [GW 3965 hydrochloride, 3-[3-[[[2-chloro-3-(trifluoromethyl)phenyl]methyl](2,2-diphenylethyl)amino]propoxy]benzeneacetic acid hydrochloride], for which the RLU is reported as 1.02 ± 0.02 RLU in experiment [1] (1 μM single compound) and 0.63 ± 0.01 RLU in experiment [1] (10 μM single compound).
In the same order, the values of `CC[C@H](/C=C/[C@@H](C)[C@H]1CC[C@H]2[C@@H]3CC=C4C[C@@H](O)CC[C@]4(C)[C@H]3CC[C@]12C)C(C)C` [stigmasterol] are 0.78 ± 0.02 RLU and 0.69 ± 0.00 RLU.
For the compound `C[S+]([O-])CCCCN=C=S` (stereo not shown) [sulforaphane], the “HO-1 in the mesenchymal connective tissue sheath” value in experiment [2] is reported as “up-regulation of HO-1”. The “NQO-1 Fold change compared to 18S” value in experiment [3] (10 μM) is on record as 5.44 ± 0.50 Fold change. For the same compound, the “HO-1 protein (ng HO-1 per μg protein)” value in experiment [4] (0.01 μM single compound) stood at 1.602 ± 0.248 ng HO-1 per μg protein; in experiment [4] (0.05 μM single compound), 1.600 ± 0.385 ng HO-1 per μg protein; in experiment [4] (1 μM single compound) it was 1.910 ± 0.418 ng HO-1 per μg protein.
In the case of `C=C1C(=O)O[C@@H]2C[C@@]3(C)[C@@H](O)C[C@@H](O)C(=C)[C@@H]3C[C@H]12` [granilin], the RLU turned out to be 3.77 ± 0.31 RLU in experiment [1] (1 μM single compound) and 15.04 ± 0.18 RLU in experiment [1] (5 μM single compound).
On to `CC(C)CC[C@@H](O)[C@@H](C)[C@H]1CC[C@H]2[C@@H]3CC=C4C[C@@H](O)CC[C@]4(C)[C@H]3CC[C@]12C` [22(R)-hydroxycholesterol], for which the “NQO-1 Fold change compared to 18S” value in experiment [3] (5 μM) came out at 1.04 ± 0.05 Fold change. Further, the RLU in experiment [1] (1 μM single compound) worked out at 1.17 ± 0.03 RLU; in experiment [1] (10 μM single compound), 0.67 ± 0.01 RLU. Moreover, the “HO-1 protein (ng HO-1 per μg protein)” value in experiment [4] (1 μM single compound) is on record as 1.486 ± 0.387 ng HO-1 per μg protein; in experiment [4] (10 μM single compound), 3.174 ± 0.119 ng HO-1 per μg protein.
